Where two headings read alike, the source gives them in different places.

In assay [1] the target is T1, m1 muscarinic receptor (Homo sapiens, UniProt P11229).
T1 sequence (P11229 1-460): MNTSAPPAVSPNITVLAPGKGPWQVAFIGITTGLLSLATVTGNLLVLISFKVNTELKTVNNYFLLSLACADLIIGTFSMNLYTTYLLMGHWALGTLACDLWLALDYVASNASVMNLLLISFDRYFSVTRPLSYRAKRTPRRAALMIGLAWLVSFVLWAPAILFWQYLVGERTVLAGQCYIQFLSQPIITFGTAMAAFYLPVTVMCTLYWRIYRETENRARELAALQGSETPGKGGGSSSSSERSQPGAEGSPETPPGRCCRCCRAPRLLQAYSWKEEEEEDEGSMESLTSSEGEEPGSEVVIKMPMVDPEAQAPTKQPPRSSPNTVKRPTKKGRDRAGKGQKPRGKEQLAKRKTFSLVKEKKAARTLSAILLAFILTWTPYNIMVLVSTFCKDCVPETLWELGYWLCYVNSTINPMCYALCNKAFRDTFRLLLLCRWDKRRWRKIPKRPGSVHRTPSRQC
Put plainly: biochemical. It counts as binding.

Assay [2] has as its target T2, m2 muscarinic receptor (Homo sapiens, UniProt P08172).
T2 sequence (P08172 1-466): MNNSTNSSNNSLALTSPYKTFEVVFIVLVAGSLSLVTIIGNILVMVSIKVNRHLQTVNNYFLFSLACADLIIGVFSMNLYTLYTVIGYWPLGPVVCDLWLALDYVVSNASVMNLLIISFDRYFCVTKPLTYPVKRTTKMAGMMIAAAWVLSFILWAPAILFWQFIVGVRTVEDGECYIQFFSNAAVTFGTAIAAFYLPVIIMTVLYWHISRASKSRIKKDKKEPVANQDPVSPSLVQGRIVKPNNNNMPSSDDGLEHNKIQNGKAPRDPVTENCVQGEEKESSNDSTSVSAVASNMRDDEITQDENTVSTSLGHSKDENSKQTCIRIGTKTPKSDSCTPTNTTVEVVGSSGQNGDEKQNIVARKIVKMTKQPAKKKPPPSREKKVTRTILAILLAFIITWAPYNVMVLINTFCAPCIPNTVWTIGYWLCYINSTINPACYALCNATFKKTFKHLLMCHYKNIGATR
Put plainly: biochemical. It counts as binding.

Assay [3] addresses T3, M1 acetylcholine receptors (Homo sapiens, UniProt P11229).
T3 sequence (P11229 1-460): T1 sequence (P11229 1-460)
Description: stimulation of phosphoinositide (PI) hydrolysis in CHO cells expressing M1 acetylcholine receptors. It counts as cell-based. To be noted: for Emax: CHO, 1 h; for EC50: read-out: m1 agonism [P.I.] EC50; for m1 CHO @ 30 × Ki % Carbachol / m1 CHO % Carbachol (at Ki): PI hydrolysis, 60 min; for m1 CHO @ 30 × Ki % Carbachol: at 30 × Ki. The procedure: (§1) The tubes are incubated for one hour at 37° C. The reaction is quenched with chloroform and the phosphatidyl inositols are extracted with methanol and chloroform. Phase separation is assured with the addition of methanol and water followed by centrifugation. The tritiated inositol phosphates are recovered on BioRad AG 1-X8 anion exchange resin in the formate cycle. After washing the resin with water and myo-inositol, the inositol phosphates are eluted with ammonium formate/formic acid, collected and subjected to liquid scintillation spectroscopy.
(§2) Cloned human receptors in CHO cells were used in these studies.

In assay [4] the target is m1 muscarinic receptor (Homo sapiens, UniProt P11229). Put plainly: biochemical. It counts as binding. This is another data set of the same source.
In assay [5] the target is M1 acetylcholine receptors (Homo sapiens, UniProt P11229). Put plainly: stimulation of phosphoinositide (PI) hydrolysis in CHO cells expressing M1 acetylcholine receptors. Format: cell-based. The procedure: as §1, §2
Assay [6] deals with T2, m2 muscarinic receptor. Put plainly: m2 agonism (cAMP) / functional selectivity. Format: cell-based. Conditions: for EC50: cAMP, m2; for Functional Selectivity-m2/m1: ratio of m2 (cAMP) EC50 to m1 (PI) EC50.
From the text: Such diseases include presenile and senile dementia (also known as Alzheimer's Disease and Senile Dementia of the Alzheimer Type, respectively), Huntington's Chorea, Tardive Dyskinesia, Hyperkinesia, Mania and Tourette's Syndrome. Alzheimer's Disease is a slowly progressive neurological disorder characterized by deficits in cognitive function including memory, attention, language and visual perception capabilities.
as §2

Setting [7] is: m1, cloned human receptors in CHO cells, read-out: [3H]QNB Binding Ki(μM) m1.
Where [8] appears, read: read-out: [3H]QNB Binding Ki(μM) m2.
Where [9] appears, read: read-out: m1 CHO @ 30 × Ki % Carbachol, PI hydrolysis, m1 CHO, at 30 × Ki, percentage of mean carbachol value.
[10] abbreviates: m2, cloned human receptors in CHO cells, read-out: [3H]QNB Binding Ki(μM) m2.
Where [11] appears, read: read-out: m1 CHO % Carbachol (at Ki), PI hydrolysis, m1 CHO, at Ki, percentage of mean carbachol value.
Where [12] appears, read: read-out: m1 CHO @ 30 × Ki % Carbachol.
[13] abbreviates: percentage of mean carbachol value.
[14] abbreviates: read-out: m1 CHO % Carbachol (at Ki).

In general, Ki refers to a measure of affinity in units of concentration, obtained from inhibition or displacement. Regarding `CCCCCCOc1nccnc1O[C@H]1CN2CC[C@@H]1C2` (relative stereo) [Example 1, (±)-(endo)-3-(3-Hexyloxy-pyrazin-2-yloxy)-1-aza-bicyclo 2.2.1!heptane], the Ki at m1 muscarinic receptor [1] (setting [7]) amounted to 0.03 µM; on m2 muscarinic receptor [2] (setting [8]), 0.02 µM. In addition, in assay [3] (setting [9]), the Emax came to 102%.

With `CCCCCCSc1nccnc1O[C@H]1CN2CC[C@@H]1C2` (relative stereo) [Example 2, (endo)-3-(3-Hexylsulfanyl-pyrazin-2-yloxy)-1-aza-bicyclo 2.2.1!heptane], the values for the Ki at m1 muscarinic receptor [1] (setting [7]) and on m2 muscarinic receptor [2] (setting [10]) were 0.0067 µM and 0.013 µM, respectively. Also, the Emax in assay [3] (setting [9]) was determined as 97.1%.

Take `CCCCCCSc1nccnc1O[C@@H]1CN2CC[C@@H]1C2` (relative stereo) [Example 6, (exo)-3-(3-Hexylsulfanyl-pyrazin-2-yloxy)-1-azabicyclo 2.2.1!heptane]: the results for the Ki on m1 muscarinic receptor [1] (setting [7]) and on m2 muscarinic receptor [2] (setting [10]) were 0.123 µM and 0.088 µM, respectively. The Emax in assay [3] (setting [11]) was found to be 104%.

In the case of `CCCCCCOc1nccnc1S[C@@H]1CN2CC[C@@H]1C2` (relative stereo) [Example 11, (exo)-3-(3-Hexyloxy-pyrazin-2-ylsulfanyl)-1-azabicyclo 2.2.1!heptane], the Ki on m1 muscarinic receptor [1] (setting [7]) worked out at 0.292 µM. Besides, the Emax in assay [3] (setting [11]) was 41.6%.

With `CCCCCCSc1nccnc1S[C@@H]1CN2CC[C@@H]1C2` (relative stereo) [Example 12, (exo)-3-(3-Hexylsulfanyl-pyrazin-2-ylsulfanyl)-1-azabicyclo-2.2.1!heptane], the Ki on m1 muscarinic receptor [1] (read-out: [3H]QNB Binding Ki(μM) m1) amounted to 0.03 µM; at m2 muscarinic receptor [2] (setting [8]), 0.064 µM. Also, the Emax in assay [3] (setting [12]) amounted to 62%.

Usually EC50 stands for the concentration needed to bring the measured effect to its halfway point. At m1 muscarinic receptor [4], `CCCCCCOc1nccnc1O[C@H]1CN2CC[C@@H]1C2` (single isomer, unassigned) yielded a Ki of 32 nM. Moreover, the midpoint of the response in assay [5], the EC50, lay at 5.5 nM.

As for `CCCCCCSc1nccnc1O[C@H]1CN2CC[C@@H]1C2` (single isomer, unassigned) [2(+), (+)-(endo)-3-(3-hexylsulfanyl-pyrazin-2-yloxy)-1-aza-bicyclo 2.2.1!heptane], the Ki at m1 muscarinic receptor [1] (setting [7]) turned out to be 0.027 µM; at m2 muscarinic receptor [2] (setting [10]), 0.063 µM. In addition, in assay [3] (setting [9]), the Emax is 31.1%.

As to `CCCCCCSc1nccnc1O[C@H]1CN2CC[C@@H]1C2` (single isomer, unassigned) [Example 2(-), (-)-(endo)-3-(3-hexylsulfanyl-pyrazin-2-yloxy)-1-aza-bicyclo 2.2.1!heptane], the Ki at m2 muscarinic receptor [2] (setting [10]) amounted to 0.0045 µM. In assay [3] (setting [11]), the Emax amounted to 46.5%. In addition, the EC50 in assay [3] came out at 0.4 nM. Also, at m2 muscarinic receptor [6], the response was half-maximal at 16 nM (EC50) and the “Functional Selectivity-m2/m1” value is 40.

With `CCCCCCOc1nccnc1O[C@H]1CN2CC[C@@H]1C2` (single isomer, unassigned) [Example 4], the Ki on m2 muscarinic receptor [2] (setting [8]) came out at 0.024 µM.

As to `CCCCCCOc1nccnc1O[C@H]1CN2CC[C@@H]1C2` (single isomer, unassigned) [Example 5, (+)-endo-3-(3-Hexyloxy-pyrazin-2-yloxy)-1-azabicyclo 2.2.1!heptane], the figures for the Ki on m1 muscarinic receptor [1] (setting [7]) and on m2 muscarinic receptor [2] (setting [8]) were 0.083 µM and 0.071 µM, respectively. The “m1 CHO @ 30 × Ki % Carbachol” value in assay [3] (setting [13]) amounted to 51%.

In the case of `CCCCCCSc1nccnc1O[C@@H]1CN2CC[C@@H]1C2` (single isomer, unassigned) [Example 7, (+)-exo-3-(3-Hexylsulfanyl-pyrazin-2-yloxy)-1-azabicyclo 2.2.1!heptane], the Ki on m2 muscarinic receptor [2] (setting [10]) came to 0.059 µM. Also, the “m1 CHO % Carbachol (at Ki)” value in assay [3] (setting [13]) was determined as 107.3%. Moreover, in assay [3], the EC50 was determined as 10.3 nM. Also, on m2 muscarinic receptor [6], the EC50 stood at 2400 nM and the “Functional Selectivity-m2/m1” value came out at 240.

Consider `CCCCCCSc1nccnc1O[C@@H]1CN2CC[C@@H]1C2` (single isomer, unassigned) [Example 8, (-)-(exo)-3-(3-Hexylsulfanyl-pyrazin-2-yloxy)-1-azabicyclo 2.2.1!heptane], for which, at m2 muscarinic receptor [2] (setting [10]), the Ki worked out at 0.008 µM. Besides, the “m1 CHO % Carbachol (at Ki)” value in assay [3] (setting [13]) worked out at 44.2%.

Take `CCCCCCOc1nccnc1O[C@@H]1CN2CC[C@@H]1C2` (single isomer, unassigned) [Example 9, (-)-(exo)-3-(3-Hexyloxy-pyrazin-2-yloxy)-1-azabicyclo 2.2.1!heptane]: the Ki on m2 muscarinic receptor [2] (setting [8]) amounted to 0.774 µM. In assay [3] (setting [13]), the “m1 CHO @ 30 × Ki % Carbachol” value was 56%.

Turning to `CCCCCCOc1nccnc1O[C@@H]1CN2CC[C@@H]1C2` (single isomer, unassigned) [Example 10, (+)-(exo)-3-(3-Hexyloxy-pyrazin-2-yloxy)-1-azabicyclo 2.2.1!heptane], the Ki at m2 muscarinic receptor [2] (setting [8]) was determined as 0.149 µM. Moreover, the “m1 CHO @ 30 × Ki % Carbachol” value in assay [3] (setting [13]) was determined as 9%.

As to `CCCCCCSc1nccnc1SC1CN2CCC1CC2` (stereo not shown) [Example 13, 3-(3-Hexylsulfanyl-pyrazin-2-ylsulfanyl)-1-azabicyclo 2.2.2!octane], the affinity at m1 muscarinic receptor [1], expressed as Ki, was 0.029 µM. Moreover, in assay [3] (setting [12]), the Emax is 45.9%.

On to `CCCCCCOc1nccnc1SC1CN2CCC1CC2` (stereo not shown) [Example 14, 3-(3-Hexyloxy-pyrazin-2-ylsulfanyl)-1-azabicyclo 2.2.2!octane], for which the Ki on m1 muscarinic receptor [1] is 0.076 µM. In addition, in assay [3] (setting [14]), the Emax was 29.5%.

Take `CCCCCCOc1nccnc1OC1CN2CCC1CC2` (stereo not shown) [Example 15]: the Ki turned out to be 0.14 µM at m1 muscarinic receptor [1] and 0.124 µM at m2 muscarinic receptor [2] ([3H]QNB Binding Ki(μM) m2, m2, cloned human receptors in CHO cells). For the same compound, the Emax in assay [3] (setting [14]) stood at 59.6%.

(Values after US5512574A, “Quinuclidine and azabicyclo 2.2.1! heptane pyrazinyl ethers as muscarinic agonists” (American Home Products Corporation, priority 1995, dated 1996).)
